{"source": "patent US20240180898A1", "about": "“USE OF AMINOTHIAZOLE DERIVATIVE IN TREATMENT OF IMMUNE INFLAMMATION” (INNAMUNE PHARMACEUTICAL CO. LTD., priority 2021, published 2024)", "key": {"skin wound": {"system": "skin wound", "assay": "full-thickness dorsal skin wound model", "format": "in vivo, mouse", "description": "The mice were anesthetized with isoflurane, and 1.5×0.5 cm full-thickness defects were created on their dorsal skin. Animals were divided into three groups: Sham group, Vehicle group and TJ-5 group. After 1 week, mice were sacrificed and wound tissue was harvested for analysis."}, "[1]": {"system": "inflammatory colon cancer model", "assay": "AOM/DSS induced inflammatory colon cancer model", "format": "in vivo, mouse", "protocol": "Preparation and grouping of mouse inflammatory colon cancer model:\nModel preparation: 6-8-week-old male C57 mice were intraperitoneally injected with AOM (10 mg/Kg)/DSS (2.5%) to induce an inflammatory colon cancer model.\nThe experiment was divided into two groups, namely: • Inflammatory colon cancer model group (without any treatment, i.e. AOM/DSS group), TJ-M2010-5 medication group (intraperitoneal injection). The specific handling method is as follows: • TJ-M2010-5 medication group: Two days before inducing inflammatory colon cancer in C57 mice by intraperitoneal injection of AOM (10 mg/kg)/DSS (2.5%), TJ-M2010-5 was injected intraperitoneally at a dose of 50 mg/kg once a day for 10 consecutive weeks."}, "APP/PS1 transgenic mice": {"system": "APP/PS1 transgenic mice", "assay": "Alzheimer's disease model, APP/PS1 transgenic mice", "format": "in vivo, mouse", "protocol": "Preparation and grouping of Alzheimer's disease mouse models:\nThe experiment is divided into three groups, namely:\nDrug group (APP/PS1+INNA1605 group): APP/PSI transgenic mice were given INNA1605 at a dose of 50 mg/Kg/day (twice a day, 25 mg/Kg each time, intraperitoneal injection once, gavage once);\nModel group (APP/PSI group): APP/PSI transgenic mice were given an equal dose of solvent (ddH2O);\nControl group: C57BL/6 mice were given an equal dose of solvent (ddH2O).\nAt 9 months of age, Morris water maze test was conducted to evaluate the spatial learning and memory abilities of APP/PSI mice. After the behavioral experiment was completed, pentobarbital sodium (100 mg/kg) was injected into the abdominal cavity for deep anesthesia. After fully exposing the heart and aorta through thoracotomy, a 20 ml syringe was inserted into the aorta with an infusion needle from the apex of the heart. The needle was fixed and the right atrium was cut open. 30 ml of physiological saline at 4° C. was perfused through the aorta until most of the blood flowed out. The hippocampus and cortical tissue were carefully and quickly separated and stored at −80° C.for subsequent biochemical analysis. The remaining mice were first perfused with 30 ml of 4° C. physiological saline, followed by 30 ml of pre-cooled 4% paraformaldehyde. Then, the whole brain was removed and fixed with 4% paraformaldehyde for another 48 hours. After dehydration, transparency, paraffin embedding, and sectioning, immunohistochemical analysis was performed."}, "mouse eczema model": {"system": "mouse eczema model", "assay": "mouse atopic dermatitis/eczema model", "format": "in vivo", "protocol": "(§1) Preparation and grouping of mouse […] model:\nModel preparation: Male C57 mice aged 6-8 weeks were treated with 2% M7309 (carboplatin) ointment on their ears once a day for 10 consecutive days.\nThe experiment was divided into three groups, namely: • Eczema control group (without any treatment, eczema model group), TJ-M2010-5 systemic medication group (intraperitoneal injection), and TJ-M2010-5 local medication group (ointment group). The specific handling method is as follows: • TJ-M2010-5 systemic medication group: A mouse eczema model was taken and TJ-M2010-5 was injected intraperitoneally at a dose of 50 mg/kg, once a day, for 2 consecutive weeks. • TJ-M2010-5 local medication group: Take a mouse eczema model, apply 1% TJ-M2010-5 ointment on the skin, once a day, for 2 consecutive weeks."}, "[2]": {"system": "bone marrow derived macrophages", "assay": "bone marrow derived macrophage pyroptosis model (LPS + ATP)", "format": "cell-based", "protocol": "Preparation and grouping of bone marrow derived macrophage pyroptosis model:\nModel preparation: After LPS (500 ng/ml) stimulation of bone marrow derived macrophages for 6 hours, ATP (5 mmol/L) stimulation for 2 hours, followed by cell collection and supernatant detection.\nThe experiment was divided into four groups, namely: • Control group (normal cell culture medium), • Model group (with LPS and ATP stimulation added to the culture medium), • TJ-5 (10 μmol/L) group (2 hours before LPS stimulation, administer 10 μmol/L TJ-5 drug stimulation), • TJ-5 (30 μmol/L) group (2 hours before LPS stimulation, administer 30 μmol/L TJ-5 drug stimulation).\nCollect cells and their supernatant for detection at the endpoint of the experiment."}, "[3]": {"system": "H22 hepatocellular carcinoma cells", "assay": "subcutaneous H22 hepatocellular carcinoma implantation", "format": "in vivo, mouse", "conditions": "balb/c mice", "description": "H22 hepatocellular carcinoma cells were subcutaneously implanted in balb/c mice and allowed to grow freely. The animals were divided into two groups: the INNA1605 (TJ-M2010-5) group and the non-drug control group."}, "[4]": {"system": "Balb/c mouse psoriasis model", "assay": "mouse psoriasis model (imiquimod cream)", "format": "in vivo", "description": "as §1\nModel preparation: Male Balb/c mice aged 6-8 weeks were shaved on the back skin and coated with 5% imiquimod (IMQ) cream once a day for 7 consecutive days.\nThe experiment was divided into three groups, namely: • Psoriasis control group (without any treatment, psoriasis model group), TJ-M2010-5 systemic medication group (intraperitoneal injection), and TJ-M2010-5 local medication group (ointment group). The specific handling method is as follows: • TJ-M2010-5 systemic medication group: A Balb/c mouse psoriasis model was taken and TJ- M2010-5 was injected intraperitoneally at a dose of 50 mg/kg, once a day, for 2 consecutive weeks. • TJ-M2010-5 local medication group: A Balb/c mouse psoriasis model was taken, and 1% TJ-M2010-5 ointment was applied on the skin, once a day, for 2 consecutive weeks."}, "[5]": {"conditions": "intraperitoneal 50 mg/kg once a day, 10 weeks"}, "[6]": {"conditions": "immunohistochemistry, vs model group"}, "[7]": {"conditions": "TJ-5 10 or 30 μmol/L before LPS + ATP"}}, "data": [{"smiles": "O=C(CCN1CCN(Cc2ccccc2)CC1)Nc1nc(-c2ccccc2)cs1", "note": "[INNA1605, 3-(4-benzylpiperazine-1-yl)-N-(4-phenylthiazole-2-yl) propionamide]", "values": [{"measurement": "skin scar formation", "setting": "skin wound; FIG. 42", "result": "prevents skin scar formation"}, {"measurement": "levels of IL-1β, IL-6, TNF-α, G-CSF, Col I, and α-SMA mRNAs in wound tissue", "setting": "skin wound; after 1 week, vs untreated", "result": "significantly lower"}, {"measurement": "wound area", "setting": "skin wound; vs vehicle", "result": "significant decrease in wound area compared to the vehicle"}, {"measurement": "proliferation of epithelial cells in the colon mucosa", "setting": "[1]; BrdU, Ki-67", "result": "significantly inhibited"}, {"measurement": "neutrophil infiltration", "setting": "[1]; MPO staining of colon mucosa", "result": "significantly reduced"}, {"measurement": "inflammatory tissue damage of the colon mucosa", "setting": "[1]; [5]", "result": "significantly reduced"}, {"measurement": "therapeutic effect", "setting": "[1]; [5]", "result": "excellent"}, {"measurement": "no carcinogenesis observed", "setting": "[1]; model group 100% cancerous transformation", "result": 100, "unit": "%"}, {"measurement": "colitis", "setting": "[1]; mouse, in vivo", "result": "disappeared"}, {"measurement": "mucosal thickening", "setting": "[1]; mouse, in vivo", "result": "improved"}, {"measurement": "memory (Morris water maze)", "setting": "APP/PS1 transgenic mice; 50 mg/Kg/day, 9 months of age", "result": "better memory than APP/PS1 transgenic mice treated with only ddH2O"}, {"measurement": "Iba-1 positive microglia (whole brain, cortex, hippocampus)", "setting": "APP/PS1 transgenic mice; [6]", "result": "significantly reduced compared to the model group"}, {"measurement": "brain Aβ deposition (whole brain, cortex, hippocampus)", "setting": "APP/PS1 transgenic mice; [6]", "result": "significantly less"}, {"measurement": "therapeutic effect, local medication", "setting": "mouse eczema model; 1% ointment once a day, 2 weeks", "result": "excellent therapeutic effects"}, {"measurement": "abnormally thickened stratum corneum", "setting": "mouse eczema model; after treatment", "result": "can basically restore normal tissue structure"}, {"measurement": "inflammation", "setting": "mouse eczema model; after treatment", "result": "significantly reduced"}, {"measurement": "various inflammatory factors in the skin", "setting": "mouse eczema model; mouse, in vivo", "result": "decreased"}, {"measurement": "apoptosis (PI+ cells) of bone marrow derived macrophages", "setting": "[2]; TJ-5 10 or 30 μmol/L 2 hours before LPS 500 ng/ml 6 hours + ATP 5 mmol/L 2 hours", "result": "can inhibit the apoptosis of bone marrow derived macrophages induced by LPS and ATP"}, {"measurement": "activation and cleavage of GSDMD", "setting": "[2]; [7]", "result": "significantly inhibits the activation and cleavage of GSDMD"}, {"measurement": "assembly and activation of NLRP3 inflammasomes", "setting": "[2]; [7]", "result": "can block the assembly and activation of NLRP3 inflammasomes"}, {"measurement": "classical and non classical cell pyroptosis pathways", "setting": "[2]; [7]", "result": "inhibit both classical and non classical cell pyroptosis pathways"}, {"measurement": "maturation and release of Pro-IL-1b and Pro-IL-18", "setting": "[2]; [7]", "result": "inhibiting the maturation and release"}, {"measurement": "secretion of LDH in cell culture supernatant", "setting": "[2]; [7]", "result": "reduce the secretion of LDH"}, {"measurement": "secretion of various inflammatory factors", "setting": "[2]; [7]", "result": "reducing the secretion of various inflammatory factors"}, {"measurement": "tumor size", "setting": "[3]", "result": "significantly smaller than that in the control group"}, {"measurement": "therapeutic effect, local medication", "setting": "[4]; 1% ointment on the skin once a day, 2 weeks", "result": "excellent therapeutic effects, with a significant improvement after 7 days and a cure effect achieved after 14 days"}, {"measurement": "infiltration and proliferation of mast cells", "setting": "[4]; H&E and C-kit (CD117) staining", "result": "inhibits the infiltration and proliferation of mast cells"}, {"measurement": "abnormally thickened stratum corneum", "setting": "[4]; after treatment", "result": "can basically restore normal tissue structure after treatment"}, {"measurement": "inflammatory cells in the skin", "setting": "[4]; both treatments (systemic and local)", "result": "significantly reduce inflammatory cells in the skin"}, {"measurement": "imbalance of spleen T cells and their subsets", "setting": "[4]; flow cytometry", "result": "correct the imbalance of spleen T cells and their subsets"}, {"measurement": "therapeutic effect, systemic medication", "setting": "[4]; intraperitoneal 50 mg/kg once a day, 2 weeks", "result": "excellent therapeutic effects, with a significant improvement after 7 days and a cure effect achieved after 14 days"}, {"measurement": "excessive keratinization and proliferation of skin keratinocytes", "setting": "[4]; mouse, in vivo", "result": "inhibit excessive keratinization and proliferation of skin keratinocytes"}, {"measurement": "expression of CD80", "setting": "[4]; mouse, in vivo", "result": "significantly reduces the expression of CD80"}, {"measurement": "expression of intradermal lymphokines (IL-1beta, IL-6, IL-17a, TNF-alpha, MyD88 mRNA, Cxcl2 mRNA)", "setting": "[4]; mouse, in vivo", "result": "inhibits the expression of intradermal lymphokines"}, {"measurement": "skin thickness", "setting": "[4]; mouse, in vivo", "result": "significant thinning of skin thickness"}, {"measurement": "splenomegaly", "setting": "[4]; mouse, in vivo", "result": "can improve splenomegaly"}, {"measurement": "MAPK signaling pathway", "setting": "[4]; psoriasis model skin", "result": "inhibits the MAPK signaling pathway"}, {"measurement": "synthesis and secretion of inflammatory factors", "setting": "[4]; skin", "result": "inhibiting the synthesis and secretion of inflammatory factors"}, {"measurement": "immune cell infiltration and activation (macrophages, neutrophils, mast cells)", "setting": "[4]; skin tissue", "result": "a reduction in immune cell infiltration and activation"}]}]}
